# In US20110039787A1, “COMPOSITIONS, KITS AND METHODS FOR TREATING BENIGN PROSTATE HYPERPLASIA” (priority 2009, published 2011):
# Square brackets hold non-standard residues; d marks the D form. Peptide text beside a SMILES is read from it. * marks the point of attachment. dPhe(4-NHCONH2) = NC(=O)Nc1ccc(C[C@@H](N)C(=O)O)cc1; Dihydroorotyl(S) = O=C1C[C@@H](C(=O)*)NC(=O)N1; dPhe(4-Cl) = N[C@H](Cc1ccc(Cl)cc1)C(=O)O; Phe(4-NH2) = Nc1ccc(C[C@H](N)C(=O)O)cc1; d2Nal = N[C@H](Cc1ccc2ccccc2c1)C(=O)O; Lys(iPr) = CC(C)NCCCC[C@H](N)C(=O)O; d3Pal = N[C@H](Cc1cccnc1)C(=O)O
# Tests used:
# Assay type in all cases: in vivo
# men with BPH [1] = assay: Post-void residual volume by transabdominal ultrasound; conditions: all treatment groups
# Protocol: (§1) For each patient, the following parameters were measured or assessed (using the methods discussed below), at time points of screening day 0 (e.g., −7 days, “baseline”), day 14, day 28, and day 42:
# (§2) 2) Efficacy Endpoints—the measured Peak Urinary Flow, Post-void Residual Volume, and Prostate Volume.
# The Post-void Residual Volume (PVR) was evaluated by transabdominal ultrasound. The urine in the patient's bladder was sonicated from two directions perpendicular to one another resulting in three cursor positions set by the urologist. The volume was calculated automatically. The investigations were performed by urologists by methods known in the art.
# men with BPH [2] = assay: Peak (maximal) urinary flow by flowmetry
# Protocol: as §1, §2
# Peak urinary flow was determined by flowmetry using the Uropower device (Wiest, World of Medicine AG, Germany). The device fulfilled the International Continence Society standards for maximum urinary flow. The measurement of urinary flow was done in a sitting position.
# The Qmax is the maximal urinary flow rate. It is a traditional parameter used in BPH trials and is a good indicator of degree of bladder outlet obstruction (BOO).
# men with BPH [3] = assay: IPSS questionnaire (sum of scores), clinical trial in BPH patients
# Protocol: as §1
# After the initial 6-week treatment period of the exploratory study had been completed, a 12-month follow-up period looking at long-term efficacy commenced. Interim data of the main efficacy variables (IPSS, IPSS Global QoL, prostate volume, urinary flow, and post-void residual volume—measured as set out below) after 6 months' follow-up are also presented herein at Tables 1, 2, 3, and FIG. 1b. FIG. 1b also includes IPSS data at 9 and 12 months.
# The IPSS was developed in 1991 by the American Urological Association to assess the severity of urinary symptoms related to BPH (Barry, M. J., et al., The American Urological Association symptom index for benign prostatic hyperplasia. The Measurement Committee of the American Urological Association. J Urol, 1992. 148(5): p. 1549-57; discussion 1564). The IPSS has been widely used in clinical studies, has undergone extensive validation, and its psychometric properties are well documented in both the original version (containing a 1-month recall) as well as the ‘acute’ version used in this study (containing a one-week recall). The WHO recommended the use of this instrument for the evaluation of BPH, and it is considered to be the internationally accepted, standard questionnaire for assessing lower urinary tract symptoms.
# The patients completed the IPSS questionnaire to evaluate their urinary symptoms. The IPSS is a patient-administered questionnaire containing seven items to evaluate symptoms of urinary obstruction (i.e., incomplete emptying, frequency, hesitancy, urgency, weak stream, straining, nocturia) over the preceding week. Each urinary symptom question is assigned points from 0 to 5 indicating increasing severity of the particular symptom. The total score can therefore range from 0 to 35 (0-7: mildly symptomatic; 8-19: moderately symptomatic; 20-35: severely symptomatic). A reduction in total score over the treatment period is indicative of prostate symptom improvement.
# [4] = across all patient groups, Day 42
# [5] = 16+16 mg, Month 6 follow up, n=6
# [6] = 32+32 mg, Month 6 follow up, n=7
# [7] = all treatment groups (50 patients), Day 42
structure (smiles),measurement,setting,value
"CC(=O)N[C@H](Cc1ccc2ccccc2c1)C(=O)N[C@H](Cc1ccc(Cl)cc1)C(=O)N[C@H](Cc1cccnc1)C(=O)N[C@@H](CO)C(=O)N[C@@H](Cc1ccc(NC(=O)[C@@H]2CC(=O)NC(=O)N2)cc1)C(=O)N[C@H](Cc1ccc(NC(N)=O)cc1)C(=O)N[C@@H](CC(C)C)C(=O)N[C@@H](CCCCNC(C)C)C(=O)N1CCC[C@H]1C(=O)N[C@H](C)C(N)=O [Degarelix, D-Alaninamide, N-acetyl-3-(2-naphthalenyl)-D-alanyl-4-chloro-D-phenylalanyl-3-(3-pyridinyl)-D-alanyl-L-seryl-4-[[[(4S)-hexahydro-2,6-dioxo-4-pyrimidinyl]carbonyl]amino]-L-phenylalanyl-4-[(aminocarbonyl)amino]-D-phenylalanyl-L leucyl-N6-(1-methylethyl)-L-lysyl-L-prolyl] (Ac-[d2Nal][dPhe(4-Cl)][d3Pal]S[Phe(4-NH2)](Dihydroorotyl(S))[dPhe(4-NHCONH2)]L[Lys(iPr)]P[dA]-NH2)",Mean post-void residual volume,"men with BPH [1]; Day 14, apparent dose dependent way",decreased
same,Mean post-void residual volume versus baseline,men with BPH [1]; Day 42,lower than the baseline value
same,Number of patients in whom post-void residual volume had decreased compared to baseline,men with BPH [1]; Day 42,33 patients
same,Number of patients in whom post-void residual volume increased compared to baseline,men with BPH [1]; Day 42,17 patients
same,Mean maximal urinary flow,"men with BPH [2]; 32 mg, Day 42 (baseline 11.7)",11.2 mL/s
same,Mean maximal urinary flow,"men with BPH [2]; 64 mg, Day 42 (baseline 9.1)",11.9 mL/s
same,Mean maximal urinary flow,"men with BPH [2]; 16+16 mg, Day 42 (baseline 10.0)",10.1 mL/s
same,Mean maximal urinary flow,"men with BPH [2]; 32+32 mg, Day 42 (baseline 9.7)",12.2 mL/s
same,Number of patients in whom maximal urinary flow decreased compared to baseline,men with BPH [2]; [4],25 patients
same,Number of patients in whom maximal urinary flow increased compared to baseline,men with BPH [2]; [4],24 patients
same,Number of patients in whom maximal urinary flow remained unchanged,men with BPH [2]; [4],1 patient
same,Improvements in mean sum of IPSS scores,"men with BPH [3]; 32 mg and 32+32 mg groups, 9 and 12 months (FIG. 1b)",still indicated
same,"Mean change from baseline in IPSS score, mean (SD)","men with BPH [3]; 32 mg s.c. (Day 0), Day 14, N=12",−7.8 (8.7)
same,Percentage responders (decrease in IPSS of at least 30% as compared to baseline),"men with BPH [3]; 32 mg, Day 42",92%
same,"Mean IPSS score, mean (SD)","men with BPH [3]; 32 mg, Day 42, N=12",9.1 (6.2)
same,"Mean change from baseline in IPSS score, mean (SD)","men with BPH [3]; 32 mg, Day 42, N=12",−13.2 (6.6)
same,"Mean change from baseline in IPSS score, mean (SD)","men with BPH [3]; 32 mg, Day 42, N=12, listed as degarelix",−13.2
same,"Mean IPSS score, mean (SD)","men with BPH [3]; 32 mg, Month 6 follow up, n=7",10.4 (6.3)
same,"Mean change from baseline in IPSS score, mean (SD)","men with BPH [3]; 32 mg, Month 6 follow up, n=7",−11.6 (8.3)
same,Percentage responders (decrease in IPSS of at least 30% as compared to baseline),"men with BPH [3]; 32 mg, Month 6 follow up, n=7",86%
same,"Mean change from baseline in IPSS score, mean (SD)","men with BPH [3]; 64 mg s.c. (Day 0), Day 14, N=13",−8.0 (4.0)
same,Percentage responders (decrease in IPSS of at least 30% as compared to baseline),"men with BPH [3]; 64 mg, Day 42",85%
same,"Mean IPSS score, mean (SD)","men with BPH [3]; 64 mg, Day 42, N=13",11.8 (5.9)
same,"Mean change from baseline in IPSS score, mean (SD)","men with BPH [3]; 64 mg, Day 42, N=13",−10.0 (5.0)
same,"Mean change from baseline in IPSS score, mean (SD)","men with BPH [3]; 64 mg, Day 42, N=13, listed as degarelix",−10.0
same,"Mean IPSS score, mean (SD)","men with BPH [3]; 64 mg, Month 6 follow up, n=4",16.0 (8.7)
same,"Mean change from baseline in IPSS score, mean (SD)","men with BPH [3]; 64 mg, Month 6 follow up, n=4",−4.0 (3.6)
same,"Mean change from baseline in IPSS score, mean (SD)","men with BPH [3]; 16+16 mg s.c. (Day 0 + Day 14), Day 14, N=13",−3.2 (5.4)
same,Percentage responders (decrease in IPSS of at least 30% as compared to baseline),"men with BPH [3]; 16+16 mg, Day 42",54%
same,"Mean IPSS score, mean (SD)","men with BPH [3]; 16+16 mg, Day 42, N=13",11.6 (4.5)
same,"Mean change from baseline in IPSS score, mean (SD)","men with BPH [3]; 16+16 mg, Day 42, N=13",−6.1 (4.6)
same,"Mean change from baseline in IPSS score, mean (SD)","men with BPH [3]; 16+16 mg, Day 42, N=13, listed as degarelix",−6.1
same,"Mean IPSS score, mean (SD)",men with BPH [3]; [5],16.3 (4.7)
same,"Mean change from baseline in IPSS score, mean (SD)",men with BPH [3]; [5],−2.5 (4.3)
same,Percentage responders (decrease in IPSS of at least 30% as compared to baseline),men with BPH [3]; [5],33%
same,"Mean change from baseline in IPSS score, mean (SD)","men with BPH [3]; 32+32 mg s.c. (Day 0 + Day 14), Day 14, N=12",−5.5 (5.0)
same,Percentage responders (decrease in IPSS of at least 30% as compared to baseline),"men with BPH [3]; 32+32 mg, Day 42",83%
same,"Mean IPSS score, mean (SD)","men with BPH [3]; 32+32 mg, Day 42, N=12",8.6 (5.7)
same,"Mean change from baseline in IPSS score, mean (SD)","men with BPH [3]; 32+32 mg, Day 42, N=12",−9.6 (4.7)
same,"Mean change from baseline in IPSS score, mean (SD)","men with BPH [3]; 32+32 mg, Day 42, N=12, listed as degarelix",−9.6
same,"Mean IPSS score, mean (SD)",men with BPH [3]; [6],6.7 (4.5)
same,"Mean change from baseline in IPSS score, mean (SD)",men with BPH [3]; [6],−12.6 (9.6)
same,Percentage responders (decrease in IPSS of at least 30% as compared to baseline),men with BPH [3]; [6],86%
same,"Number of patients categorised as ""mild"" (IPSS 0-7)",men with BPH [3]; [7],17 patients
same,"Number of patients categorised as ""moderate"" (IPSS 8-19)",men with BPH [3]; [7],31 patients
same,"Number of patients categorised as ""severe"" (IPSS 20-35)",men with BPH [3]; [7],2 patients
